Source: PubChem BioAssay (NCI)
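In this assay, cells in 96-well plates receive the compound at five concentrations for 48 hours. Endpoints are linearly interpolated between the surrounding concentrations. GI50: concentration for 50% inhibition of growth. Definition used: TGI = concentration required for complete inhibition of growth.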

Legend:
Assay in all cases: NCI-60 cell line screen, 48 h
[1] = test system: MALME-3M melanoma
[2] = test system: DU-145 prostate
[3] = test system: BT-549 breast
[4] = test system: TK-10 renal
[5] = test system: ACHN renal
[6] = test system: NCI/ADR-RES ovarian
[7] = test system: HOP-62 NSCLC
[8] = test system: PC-3 prostate
[9] = test system: SW-620 colon
[10] = test system: SF-295 CNS
[11] = test system: A549 NSCLC
[12] = test system: M14 melanoma
[13] = test system: U251 CNS
[14] = test system: SNB-19 CNS
[15] = test system: HS 578T breast
[16] = test system: RXF 393 renal
[17] = test system: UACC-257 melanoma
[18] = test system: SN12C renal
[19] = test system: UACC-62 melanoma
[20] = test system: CCRF-CEM leukemia
[21] = test system: KM12 colon
[22] = test system: SNB-75 CNS
[23] = test system: HL-60(TB) leukemia
[24] = test system: MOLT-4 leukemia
[25] = test system: SF-539 CNS
[26] = test system: MDA-MB-231 breast
[27] = test system: HOP-92 NSCLC
[28] = test system: OVCAR-5 ovarian
[29] = test system: EKVX NSCLC
[30] = test system: K-562 leukemia
[31] = test system: OVCAR-3 ovarian
[32] = test system: IGROV1 ovarian
[33] = test system: SK-MEL-5 melanoma
[34] = test system: LOX IMVI melanoma
[35] = test system: CAKI-1 renal
[36] = test system: MCF7 breast
[37] = test system: OVCAR-4 ovarian
[38] = test system: SR leukemia
[39] = test system: RPMI-8226 leukemia
[40] = test system: OVCAR-8 ovarian
[41] = test system: SK-MEL-2 melanoma
[42] = test system: 786-0 renal
[43] = test system: UO-31 renal
[44] = test system: A498 renal
[45] = test system: COLO 205 colon
[46] = test system: HCT-116 colon
[47] = test system: NCI-H226 lung
[48] = test system: HT29 colon
[49] = test system: SK-OV-3 ovarian
[50] = test system: SF-268 CNS
[51] = test system: HCT-15 colon
[52] = test system: HCC-2998 colon
[53] = test system: MDA-MB-435
[54] = test system: NCI-H460 lung
[55] = test system: NCI-H23 lung
[56] = test system: T-47D breast
[57] = test system: NCI-H522 lung
[58] = test system: SK-MEL-28 melanoma

CNC(=O)c1ccccc1Nc1cc(Nc2ccc(N3CCOCC3)cc2OC)ncc1C(F)(F)F
GI50 [1]: 0.264 µM
TGI [1]: 63.6 µM
GI50 [2]: 3.4 µM
TGI [2]: > 81.5 µM
GI50 [3]: 8.14 µM
TGI [3]: 41.8 µM
GI50 [4]: 1.23 µM
TGI [4]: 40.2 µM
GI50 [5]: 5.27 µM
TGI [5]: > 84.5 µM
GI50 [6]: 2.82 µM
TGI [6]: > 68.3 µM
GI50 [7]: 0.296 µM
TGI [7]: 52.5 µM
GI50 [8]: 18.6 µM
TGI [8]: > 100 µM
GI50 [9]: 1.92 µM
TGI [9]: > 65.6 µM
GI50 [10]: 1.07 µM
TGI [10]: 41.8 µM
GI50 [11]: 1.7 µM
TGI [11]: 22.7 µM
GI50 [12]: 0.739 µM
TGI [12]: 32.2 µM
GI50 [13]: 10.4 µM
TGI [13]: > 87.6 µM
GI50 [14]: 15.6 µM
TGI [14]: > 100 µM
GI50 [15]: 13.5 µM
TGI [15]: > 87.6 µM
GI50 [16]: 3.08 µM
TGI [16]: 20 µM
GI50 [17]: 0.346 µM
TGI [17]: 63.7 µM
GI50 [18]: 12.2 µM
TGI [18]: > 81.5 µM
GI50 [19]: 0.419 µM
TGI [19]: 20.4 µM
GI50 [20]: 8.49 µM
TGI [20]: 97.8 µM
GI50 [21]: 1.18 µM
TGI [21]: 11.6 µM
GI50 [22]: 1.31 µM
TGI [22]: 43.5 µM
GI50 [23]: 1 µM
TGI [23]: 24.8 µM
GI50 [24]: 6.64 µM
TGI [24]: > 86.8 µM
GI50 [25]: 6.37 µM
TGI [25]: 34 µM
GI50 [26]: 2.7 µM
TGI [26]: 47.1 µM
GI50 [27]: 0.011 µM
TGI [27]: 0.172 µM
GI50 [28]: 0.637 µM
TGI [28]: > 100 µM
GI50 [29]: 0.341 µM
TGI [29]: 64.8 µM
GI50 [30]: 5 µM
TGI [30]: > 100 µM
GI50 [31]: 13.1 µM
TGI [31]: > 85.3 µM
GI50 [32]: 2.28 µM
TGI [32]: > 100 µM
GI50 [33]: 4.55 µM
TGI [33]: 22.1 µM
GI50 [34]: 1.45 µM
TGI [34]: 18.5 µM
GI50 [35]: 1.64 µM
TGI [35]: > 54.6 µM
GI50 [36]: 0.296 µM
TGI [36]: 34.5 µM
GI50 [37]: 3.24 µM
TGI [37]: > 100 µM
GI50 [38]: 0.248 µM
TGI [38]: 12.4 µM
GI50 [39]: 3.61 µM
TGI [39]: 48 µM
GI50 [40]: 6.88 µM
TGI [40]: > 100 µM
GI50 [41]: 3.82 µM
TGI [41]: 24.9 µM
GI50 [42]: 4.12 µM
TGI [42]: 34.6 µM
GI50 [43]: 1.91 µM
TGI [43]: 17.8 µM
GI50 [44]: 2.29 µM
TGI [44]: 10.5 µM
GI50 [45]: 0.161 µM
TGI [45]: 1.37 µM
GI50 [46]: 1.94 µM
TGI [46]: 19.1 µM
GI50 [47]: 2.42 µM
TGI [47]: 55.6 µM
GI50 [48]: 0.333 µM
TGI [48]: 15.4 µM
GI50 [49]: 5.44 µM
TGI [49]: 57.6 µM
GI50 [50]: 4.86 µM
TGI [50]: 80.9 µM
GI50 [51]: 3.09 µM
TGI [51]: > 95.7 µM
GI50 [52]: 1.68 µM
TGI [52]: 62.4 µM
GI50 [53]: 0.815 µM
TGI [53]: > 94.3 µM
GI50 [54]: 2.54 µM
TGI [54]: 19.4 µM
GI50 [55]: 0.757 µM
TGI [55]: 60.7 µM
GI50 [56]: 14.5 µM
TGI [56]: 59.8 µM
GI50 [57]: 7.67 µM
TGI [57]: 37.6 µM
GI50 [58]: 1.85 µM
TGI [58]: > 83.8 µM
